Source: patent publication US20230157939A1, “PERSONAL CARE COMPOSITIONS WITH ENHANCED SOLUBILITY ACTIVES” (Conopco, Inc., d/b/a UNILEVER, priority 2020, published 2023)

Columns and labels:
[1] = according to Zhu, et al.; cited from earlier work
[2] = Odor and H2S generation (H2S test strip) of cystine / cystine derivative samples; assay type: physicochemical; conditions: summary of the Examples; monitored as H2S
Method: Evaluation of Cystine Crystallization and Odor in the Presence of Cystine Derivatives Samples for cystine crystallization evaluation were prepared by dissolving cystine (10 mg) alone or in combination with NDAC (N,N′-diacetyl-L-cystine) (55 mg), NACys (N-acetyl-L-cysteine) (28 mg) or L-cystine diethyl ester dihydrochloride (DEC) (62 mg) in 0.775M NaOH (1 ml) or Epilife™ cell culture media (60 uM calcium chloride, HEPES/bicarbonate buffered; Thermofisher Scientific) (1 ml) and the pH adjusted to 7.0 by adding HCl (12.1M). A hydrogen sulfide (H2S) test strip (Sigma) was placed above the sample solution and the samples sealed. Visual appearance, odor and H2S generation (unchanged test strip white color=no H2S generated; changed test strip brown/black color=H2S generated) were monitored up to 4 months and recorded.

[3] = at 25° C.; cited from earlier work

odor of the cystine derivative, in words [2] | SMILES | other results
 | CC(=O)N[C@@H](CSSC[C@H](NC(C)=O)C(=O)O)C(=O)O [NDAC, N,N′-Diacetyl-L-Cystine] | inhibitor of cystine crystal growth [1]: not effective
unpleasant sulfurous odor | CCOC(=O)[C@@H](N)CSSC[C@H](N)C(=O)OCC [DEC, L-Cystine diethyl ester] | 
 | N[C@@H](CSSC[C@H](N)C(=O)O)C(=O)O [cystine, L-Cystine] | solubility of cystine in water [3]: 112 µg/mL
upleasant sulfurous odor | CC(=O)N[C@@H](CS)C(=O)O [NACys, N-Acetyl-L-Cysteine] | 
